21 molecules from US11312727B1, “Macrocyclic flu endonuclease inhibitors” (Janssen BioPharma, Inc., priority 2018, dated 2022) can be followed below.

The subject of data set [1] is Influenza strain A549 A/WSN/33 (H1N1). The data set is described as follows: microbe, parasite or virus in culture. Format: cell-based. Particulars: Influenza A virus, A549, 20 h, A549 cells, influenza A/WSN/33 (H1N1), 20 hours incubation; read-out: A549_A(H1N1) EC50.
The nature of data set [2]: in vitro. The note with it: human, CC50, uninfected A549 cells, CellTiter-Glo.

Molecules are shown by their SMILES.

With `C[C@H]1/C=C\COc2cccc3c2[C@@H](c2ccccc2SC3)N2CN1C(=O)c1c(O)c(=O)ccn12` (single isomer, unassigned) [Compound 138AA, (13*S,21a*S,Z)-16-hydroxy-13-methyl-6,10,13,21a-tetrahydro-7,8-(epiprop[1]en[1]yl[3]ylidene)-14,21-methanobenzo[6,7]thiepino[4,5-c]pyrido[1,2-f][1]oxa[5,6,9]triazacyclotridecine-15,17-dione], in data set [1], the EC50 – broadly, the concentration needed to bring the measured effect to its halfway point – is 0.0008 µM. The CC50 (usually the concentration that lowers cell viability or growth by half) in data set [2] is more than 0.05 µM.
On the same counts, the results for `C/C1=C/COc2ccccc2[C@H](c2ccccc2)N2CN(C1)C(=O)c1c(O)c(=O)ccn12` (single isomer, unassigned) [Compound 38B, (18*S,Z)-12-hydroxy-8-methyl-18-phenyl-6,9-dihydro-18H-10,17-methanobenzo[b]pyrido[1,2-f][1]oxa[5,6,9]triazacyclotridecine-11,13-dione] are 0.026 µM and more than 2 µM.
Regarding `O=C1c2c(O)c(=O)ccn2N2CN1C/C=C\COc1ccccc1[C@@H]2c1ccccc1F` (single isomer, unassigned) [Compound 36A, (18*R,Z)-18-(2-fluorophenyl)-12-hydroxy-6,9-dihydro-18H-10,17-methanobenzo[b]pyrido[1,2-f][1]oxa[5,6,9]triazacyclotridecine-11,13-dione], in data set [1], the EC50 turned out to be 0.015 µM. The CC50 in data set [2] is more than 2 µM.
The matching figures for `C[C@@H]1N2C/C=C/COc3c(F)cccc3[C@@H](c3ccccc3)N1n1ccc(=O)c(O)c1C2=O` (single isomer, unassigned) [Compound 91A, (18*R,19*R,E)-4-fluoro-12-hydroxy-19-methyl-18-phenyl-6,9-dihydro-18H-10,17-methanobenzo[b]pyrido[1,2-f][1]oxa[5,6,9]triazacyclotridecine-11,13-dione]: 0.003 µM and more than 1 µM.
As to `CC(C)[C@@H]1/C=C/COc2cc(F)c(F)c3c2[C@H](c2ccccc2SC3)N2CN1C(=O)c1c(O)c(=O)ccn12` (single isomer, unassigned) [Compound 169BB, (9*R,17a*R,*E)-24,25-difluoro-12-hydroxy-9-isopropyl-2,6,9,17a-tetrahydro-3,4-(epiprop[1]en[1]yl[3]ylidene)-10,17-methanobenzo[6,7]thiepino[4,5-c]pyrido[1,2-f][1]oxa[5,6,9]triazacyclotridecine-11,13-dione], the EC50 in data set [1] amounted to 0.0013 µM. This molecule also had a CC50 in data set [2] of more than 0.1 µM.
On the same counts, the results for `O=C1c2c(O)c(=O)ccn2N2CN1C[C@H]1C[C@@H]1COc1cc(F)c(F)c3c1[C@H]2c1ccccc1SC3` (single isomer, unassigned) [Compound 127BA, (1a*S,11b*R,20a*S)-22,23-difluoro-17-hydroxy-1a,2,6,11b,20,20a-hexahydro-1H-5,4-(epiprop[1]en[1]yl[3]ylidene)-12,19-methanobenzo[6,7]thiepino[4,5-c]cyclopropa[k]pyrido[1,2-f][1]oxa[5,6,9]triazacyclotridecine-16,18-dione] are 0.0014 µM and more than 0.2 µM.
For the molecule `C[C@@H]1/C=C/COc2cc(F)c(F)c3c2[C@H](c2ccccc2SC3)N2CN1C(=O)c1c(O)c(=O)ccn12` (single isomer, unassigned) [Compound 162A, (9*R,17a*R,*E)-24,25-difluoro-12-hydroxy-9-methyl-2,6,9,17a-tetrahydro-3,4-(epiprop[1]en[1]yl[3]ylidene)-10,17-methanobenzo[6,7]thiepino[4,5-c]pyrido[1,2-f][1]oxa[5,6,9]triazacyclotridecine-11,13-dione], in data set [1], the EC50 is more than 0.05 µM. The CC50 in data set [2] is more than 0.1 µM.
Regarding `C[C@@H]1/C=C\COc2cccc3c2[C@H](c2ccccc2SC3)N2CN1C(=O)c1c(O)c(=O)ccn12` (single isomer, unassigned) [Compound 138BB, (13*R,21a*R,Z)-16-hydroxy-13-methyl-6,10,13,21a-tetrahydro-7,8-(epiprop[1]en[1]yl[3]ylidene)-14,21-methanobenzo[6,7]thiepino[4,5-c]pyrido[1,2-f][1]oxa[5,6,9]triazacyclotridecine-15,17-dione], the EC50 in data set [1] is more than 0.1 µM. In data set [2], this molecule registered a CC50 of more than 0.2 µM.
As for `CC[C@H]1/C=C/COc2c(ccc(F)c2F)[C@@H](c2ccccc2)N2CN1C(=O)c1c(O)c(=O)ccn12` [Compound 101AA, (9S,18R,E)-9-ethyl-3,4-difluoro-12-hydroxy-18-phenyl-6,9-dihydro-18H-10,17-methanobenzo[b]pyrido[1,2-f][1]oxa[5,6,9]triazacyclotridecine-11,13-dione], the EC50 in data set [1] worked out at 0.0007 µM. Further, the CC50 in data set [2] is more than 0.1 µM.
Turning to `O=C1c2c(O)c(=O)ccn2N2CN1CC/C=C\COc1ccc(F)c3c1[C@@H]2c1ccccc1SC3` (single isomer, unassigned) [Compound 93A, (1*R,13Z)-20-fluoro-7-hydroxy-16-oxa-23-thia-2,3,10-triazahexacyclo[15.12.1.12,10.03,8.021,30.024,29]hentriaconta-4,7,13,17,19,21(30),24(29),25,27-nonaene-6], the EC50 in data set [1] is more than 0.5 µM. This molecule showed a CC50 in data set [2] of more than 1 µM.
Regarding `O=C1c2c(O)c(=O)ccn2N2CN1C1(/C=C/COc3c(ccc(Cl)c3Cl)[C@@H]2c2ccccc2)CC1` (single isomer, unassigned) [Compound 113B, (18′*S,*E)-3′,4′-dichloro-12′-hydroxy-18′-phenyl-6′H,18′H-spiro[cyclopropane-1,9′-[10,17]methanobenzo[b]pyrido[1,2-f][1]oxa[5,6,9]triazacyclotridecine]-11′,13′-dione], the EC50 in data set [1] worked out at 0.002 µM. Further, the CC50 in data set [2] was more than 0.2 µM.
For `O=C1c2c(O)c(=O)ccn2N2CN1C/C=C/CCc1ccccc1[C@H]2c1ccccn1` [Compound 43A, (17S,E)-4-hydroxy-16-(pyridin-2-yl)-7,10,11,16-tetrahydro-6,17-methanobenzo[k]pyrido[1,2-b][1,2,5]triazacyclotridecine-3,5-dione], in data set [1], the EC50 is 0.022 µM. The same molecule showed a CC50 in data set [2] of more than 2 µM.
The matching figures for `O=C1c2c(O)c(=O)ccn2N2CN1C/C=C/COc1cc(F)c(F)c3c1[C@H]2c1ccccc1SC3` (single isomer, unassigned) [Compound 140B, (17a*S,*E)-24,25-difluoro-12-hydroxy-2,6,9,17a-tetrahydro-3,4-(epiprop[1]en[1]yl[3]ylidene)-10,17-methanobenzo[6,7]thiepino[4,5-c]pyrido[1,2-f][1]oxa[5,6,9]triazacyclotridecine-11,13-dione]: 0.0003 µM and more than 0.05 µM.
For the molecule `O=C1c2c(O)c(=O)ccn2N2CN1CC/C=C\COc1ccc(F)c3c1[C@H]2c1ccccc1SC3` (single isomer, unassigned) [Compound 93B, (1*SR,13Z)-20-fluoro-7-hydroxy-16-oxa-23-thia-2,3,10-triazahexacyclo[15.12.1.12,10.03,8.021,30.024,29]hentriaconta-4,7,13,17,19,21(30),24(29),25,27-nonaene-6], the EC50 in data set [1] was 0.0022 µM. The molecule further registered a CC50 in data set [2] of more than 0.2 µM.
`O=C1c2c(O)c(=O)ccn2N2CN1C/C=C\COc1ccc(Cl)cc1[C@@H]2c1ccccc1` (single isomer, unassigned) [Compound 51B]: the EC50 in data set [1] amounted to 0.01 µM. Moreover, in data set [2], the CC50 was more than 2 µM.
Turning to `C[C@@H]1/C=C\COc2cc(F)c(F)c3c2[C@H](c2ccccc2SC3)N2CN1C(=O)c1c(O)c(=O)ccn12` (single isomer, unassigned) [Compound 162C, (13*R,21a*R,*Z)-24,25-difluoro-16-hydroxy-13-methyl-6,10,13,21a-tetrahydro-7,8-(epiprop[1]en[1]yl[3]ylidene)-14,21-methanobenzo[6,7]thiepino[4,5-c]pyrido[1,2-f][1]oxa[5,6,9]triazacyclotridecine-15,17-dione], in data set [1], the EC50 was found to be 0.01 µM. In addition, the CC50 in data set [2] was more than 0.1 µM.
As for `O=C1c2c(O)c(=O)ccn2N2CN1C/C=C\COc1c(ccc(Cl)c1Cl)[C@@H]2c1ccccc1` (single isomer, unassigned) [Compound 103B, (18*S,Z)-3,4-dichloro-12-hydroxy-18-phenyl-6,9-dihydro-18H-10,17-methanobenzo[b]pyrido[1,2-f][1]oxa[5,6,9]triazacyclotridecine-11,13-dione], the EC50 in data set [1] turned out to be 0.0031 µM. In data set [2], this molecule came in with a CC50 of more than 0.2 µM.
Turning to `COC[C@@H]1/C=C/COc2c(ccc(F)c2F)[C@@H](c2ccccc2)N2CN1C(=O)c1c(O)c(=O)ccn12` (single isomer, unassigned) [Compound 153BA, (9*S,18*R,*E)-3,4-difluoro-12-hydroxy-9-(methoxymethyl)-18-phenyl-6,9-dihydro-18H-10,17-methanobenzo[b]pyrido[1,2-f][1]oxa[5,6,9]triazacyclotridecine-11,13-dione], in data set [1], the EC50 came out at 0.0042 µM. In addition, the CC50 in data set [2] was more than 0.1 µM.
Consider `O=C1c2c(O)c(=O)ccn2N2CN1C/C=C\COc1c(ccc(F)c1F)[C@H]2c1ccccc1C1CC1` (single isomer, unassigned) [Compound 136A, (18*R,*Z)-18-(2-cyclopropylphenyl)-3,4-difluoro-12-hydroxy-6,9-dihydro-18H-10,17-methanobenzo[b]pyrido[1,2-f][1]oxa[5,6,9]triazacyclotridecine-11,13-dione], for which, in data set [1], the EC50 worked out at 0.0063 µM. In addition, in data set [2], the CC50 was more than 0.2 µM.
On the same counts, the results for `O=C1c2c(O)c(=O)ccn2N2CN1C/C=C/CCc1ccccc1[C@@H]2c1ccccn1` [Compound 43B, (17R,E)-4-hydroxy-16-(pyridin-2-yl)-7,10,11,16-tetrahydro-6,17-methanobenzo[k]pyrido[1,2-b][1,2,5]triazacyclotridecine-3,5-dione] are more than 1 µM and more than 2 µM.
`O=C1c2c(O)c(=O)ccn2N2CN1C1(/C=C/COc3ccccc3[C@H]2c2ccccc2)CCC1` (single isomer, unassigned) [Compound 106A, (18′*R,E)-12′-hydroxy-18′-phenyl-6′H,18′H-spiro[cyclobutane-1,9′-[10,17]methanobenzo[b]pyrido[1,2-f][1]oxa[5,6,9]triazacyclotridecine]-11′,13′-dione]: the EC50 in data set [1] came to 0.0035 µM. This molecule also had a CC50 in data set [2] of more than 0.2 µM.
